The test has as its system Host cell viability cytotoxicity counter-screen, SV40 T antigen hits. As to the kind of experiment: cell viability loss from selected hits – cytotoxicity control for SV40 T antigen inhibitor project, dose response (AID 2102).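 Note: cells exposed to compounds for 72 hours.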

The term CC50 denotes the concentration that lowers cell viability or growth by half. For the compound `O=C(O)c1ccc(-n2cccc2/C=C2/NC(=O)N(c3ccccc3)C2=O)cc1`, the CC50 is 15.6 µM. Take `O=C1NC(=S)S/C1=C\c1ccc(SCc2ccco2)o1`: the CC50 is 15.2 µM. With `COc1cc(-c2cc(=O)c3ccccc3o2)ccc1O`, the CC50 was 35.7 µM. `O=C(NN1C(=O)/C(=C/C=C/c2ccco2)SC1=S)c1ccccc1O`: the CC50 was 40.6 µM. `COC1=C(Nc2ccc(O)cc2)C(=O)c2ccccc2C1=O`: the CC50 is 16.5 µM.

Turning to `O=C(CCSc1ccc(Cl)cc1)N1CCN(c2ccc(O)cc2)CC1`, the CC50 is 14.6 µM.

As for `Cc1ccc(-n2sc3ccccc3c2=O)cc1S(=O)(=O)N1CCCCC1`, the CC50 is 14.7 µM. To `CCOC(=O)c1c(N2C(=O)Nc3cc(Cl)c(Cl)cc3N2O)sc2c1CCCCC2` belongs 15.6 µM; to `Cc1c(C)n(Cc2ccccc2)c2ncnc(NN)c12`, 6.12 µM.

On to `O=c1cc2oc3cc(O)c(O)cc3c(-c3ccccc3[N+](=O)[O-])c-2cc1O`, for which the CC50 was 24.1 µM. With `Oc1ccc(Nc2nc(N3CCCC3)c3ccccc3n2)cc1`, the CC50 is 30.7 µM.

As for `O=S(=O)(c1ccc(NC(=S)N2CCN(c3ccc(O)cc3)CC2)cc1)N1CCOCC1`, the CC50 was 33 µM.

For `COc1ccc(N2CCC(CNC(=S)Nc3c(C)cccc3C)C2)cc1` (centres undefined), the CC50 was 45.8 µM.

Turning to `O=[N+]([O-])c1ccc(-[n+]2ccc3ccccc3c2)c([N+](=O)[O-])c1`, the CC50 was 29 µM. To `CCN(CC)c1ccc(/C=C2\C(=O)N(c3nnc(C)c(=O)[nH]3)N=C2C)cc1` belongs 46.4 µM; to `O=C1C(SCCO)=C(SCCO)C(=O)c2ccccc21`, 28.2 µM; to `CC(=O)N(c1ccc2oc(=O)sc2c1)S(=O)(=O)c1cccs1`, 33.8 µM. To `CCC[n+]1c2ccccc2cc2ccccc21` belongs 23.8 µM; to `CCCc1nc2ccccc2c(=O)n1/N=C/c1ccc(O)c(O)c1`, 48.4 µM; to `O=C1NC(=S)S/C1=C\c1ccc(SCc2ccccc2)o1`, 30 µM. In the case of `Cc1ccc(S(=O)(=O)N2CCCOC2CNC(=O)C(=O)NCCc2c[nH]c3ccccc23)cc1` (centres undefined), the cytotoxic concentration (CC50) is 27.7 µM.

With `Cc1nc2ncccn2c1-c1csc(Nc2ccc(N(C)C)cc2)n1`, the CC50 is 27.5 µM.

On to `COc1ccc(N2CCC(CNC(=S)Nc3c(C)cc(C)cc3C)C2)cc1` (centres undefined), for which the CC50 was 15.9 µM. To `CCOc1c(Br)cc(CNc2ccc(N3CCOCC3)cc2)cc1OC` belongs 13.8 µM; to `CCN(CC)c1ccc(NC(=O)C2CC(=O)N(Cc3ccccc3)C2)cc1` (centres undefined), 42.7 µM; to `C=CCn1c(SCC(C)=O)nc2scc(-c3ccco3)c2c1=O`, 48.4 µM. Take `Oc1ccc(/C=N/Nc2ccc(C(F)(F)F)cn2)cc1O`: the CC50 is 34.6 µM. Consider `COc1cc(OC)c(-c2c3cc(O)c(=O)cc-3oc3cc(O)c(O)cc23)cc1OC`, for which the CC50 is 47.7 µM.

Turning to `O=C(/C=C/c1ccc(O)c(O)c1)c1ccccc1O`, the CC50 is 26.3 µM. Take `Cc1c(Br)c(=O)oc2c(Br)c(O)c(O)cc12`: the CC50 is 49.2 µM. Turning to `COc1cccc(CNc2ccc3[nH]c(=O)[nH]c3c2)c1OCc1ccccc1`, the CC50 is 37 µM. As for `O=C(N/N=C/c1cc(Br)c(O)c(Br)c1)c1cc2c(ccc3ccccc32)o1`, the CC50 was 32.3 µM.

In the case of `CCOC(=O)c1[nH]nc(-c2cc(CC)c(O)cc2O)c1-c1cscn1`, the CC50 was 33.7 µM. Then `Cc1ccc(/C=N/n2c(-c3ccco3)n[nH]c2=S)cc1`, with 24.7 µM; and `Oc1ccc(CCNc2c3ccccc3nc3ccccc23)cc1O`, with 39.3 µM; and `CCN(CC)c1ccc(/C=N/N2CCOCC2)cc1`, with 49.4 µM. Then `CC1=NOC(=O)/C1=C\c1ccc(-c2ccccc2Br)o1`, with 24.7 µM; and `CCCCNC(=O)c1sc(=S)n2c1[nH]c(=O)c1ccccc12`, with 31.8 µM. To `CCS(=O)(=O)c1ncc(Cl)c(C(=O)Nc2ccc(S(=O)(=O)N3CCCC(C)C3)cc2)n1` (centres undefined) belongs 31.2 µM. Regarding `Oc1ccc(-c2[nH]ncc2-c2cccc3cccnc23)c(O)c1`, the CC50 was 17.3 µM. To `Oc1ccc(N2CCN(C(=S)NCCc3ccccc3)CC2)cc1` belongs 45 µM; to `CCCC[n+]1c2ccccc2cc2ccccc21`, 23.9 µM. On to `N#Cc1ccccc1CN1C(=O)S/C(=C/c2cccn2-c2cccc(C(=O)O)c2)C1=O`, for which the CC50 is 16.9 µM. Regarding `O=C(CCOc1ccccc1)N1CCN(c2ccc(O)cc2)CC1`, the CC50 was 31.5 µM.

As to `Cc1ccccc1-n1sc2cc(F)ccc2c1=O`, the CC50 is 14.6 µM. To `Cc1ccccc1/C=C/C(=O)c1ccc([N+](=O)[O-])o1` belongs 23.6 µM. To `Nc1cnc(Nc2ccc(Br)cc2)nc1N` belongs 42.2 µM. Then `CCCCCCCCCCCCCCCC[N+](C)(C)CCN(Cc1ccc(OC)cc1)c1ncccn1`, with 7.39 µM; and `O=C(CCl)Nc1ccc(N2CCCCCC2)cc1`, with 47.1 µM; and `COc1ccc(N2CCC(CNC(=S)Nc3ccc(C)cc3C)C2)cc1` (centres undefined), with 15 µM. For `Cc1cc2c(N=O)c(NO)ccc2[nH]1`, the CC50 was 22.1 µM. For the compound `C=CCn1c(=S)[nH]c2scc(-c3ccco3)c2c1=O`, the CC50 is 32.5 µM. As to `CC1=C(C(=O)OCC(C)C)C(c2cccs2)NC(=S)N1` (centres undefined), the CC50 is 21 µM. With `Cc1ccc(C2(C)NC(=O)N(CC(=O)Nc3nc(-c4ccccn4)cs3)C2=O)cc1` (centres undefined), the CC50 was 11.3 µM. `Cc1ccc2nc(-c3ccccn3)c(NC3CCCC3)n2c1`: the 50% cytotoxic concentration (CC50) was 15.1 µM. Then `COc1cnc(-c2ccccn2)nc1Oc1ccc(Cl)c2ccccc12`, with 13.7 µM; and `O=C(c1ccccc1)N1CCN(c2ccc(NCc3ccc4c(c3)OCO4)cc2)CC1`, with 17.3 µM; and `O=c1cc(-c2ccc(O)c(O)c2)oc2cc(O)cc(O)c12`, with 47.9 µM. To `CC(/C=C1\SC(=S)N(CCCC(=O)Nc2ccc(C(=O)O)c(O)c2)C1=O)=C\c1ccccc1` belongs 38.4 µM; to `CCCc1cc(-c2n[nH]c(C(=O)OCC)c2-c2cscn2)c(O)cc1O`, 11.1 µM. `COc1cc(CNc2ccc(N3CCCCC3)cc2)ccc1OCC(=O)NC(C)(C)C`: the cytotoxic concentration (CC50) is 24.5 µM.

As to `COc1cc(/C=C/C(=O)c2ccc([N+](=O)[O-])o2)ccc1O`, the CC50 is 44.1 µM. Take `COc1ccc(-n2c(=O)c3c4c(sc3n3c(=S)[nH]nc23)COC(C(C)C)C4)cc1` (centres undefined): the CC50 is 40.1 µM. Then `Cc1cc(C(=O)c2cccs2)c(N)s1`, with 35.8 µM. Then `CC(=O)Nc1sc(N/N=C\c2ccco2)nc1-c1cccs1`, with 49.8 µM; and `CC(C)c1ccc(S(=O)(=O)N2CCN(CC(=O)c3ccc(O)c(O)c3)CC2)cc1`, with 31.3 µM; and `CN(C)S(=O)(=O)c1cccc(-n2sc3ccccc3c2=O)c1`, with 30.4 µM.

As for `Cc1ccc(OCCC(=O)N2CCN(c3ccc(O)cc3)CC2)cc1`, the half-maximal cytotoxic concentration (CC50) is 20.7 µM. Turning to `O=C(NC1CCCC1)c1sc(=S)n2c1[nH]c(=O)c1ccccc12`, the 50% cytotoxic concentration (CC50) is 15.9 µM. To `Clc1ccccc1CSc1nnc(-c2ccco2)c(-c2ccco2)n1` belongs 24.6 µM; to `O=C1NC(=Nc2ccc(O)cc2)S/C1=C\C=C\c1ccco1`, 30.2 µM. For `CCOc1ccc(NCc2cccn2-c2nnc(N3CCC(C(=O)NCCCN4CCCCC4CC)CC3)s2)cc1` (centres undefined), the CC50 is 49.8 µM. To `CN(C)c1ccc(NS(=O)(=O)c2cccc(Cl)c2)cc1` belongs 47.2 µM. To `CCN(CC)c1ccc(NC(=O)CCNS(=O)(=O)c2ccc3c(c2)CCC(=O)N3)c(C)c1` belongs 42.2 µM; to `CN1\C(=C/C=C/C=C/C=[N+](C)C)C(C)(C)c2ccccc21`, 21.7 µM. Turning to `Cc1ccc(/C=C2/SC(=O)NC2=S)o1`, the CC50 was 48.1 µM. Then `COc1ccc(NC2CCCN(Cc3cccc4cnccc34)C2)cc1OC` (centres undefined), with 35.9 µM; and `CC(=O)N(c1ccc2oc(=O)sc2c1)S(=O)(=O)c1ccccc1`, with 36.8 µM; and `CCCCC(CC)CN=C(N)NC(N)=NCCCCCCN=C(N)NC(N)=NCC(CC)CCCC` (centres undefined), with 3.49 µM. Then `CCOc1c(Br)cc(CNc2ccc(N3CCN(C(C)=O)CC3)cc2)cc1OC`, with 14.2 µM; and `Oc1cc2c(c(Cl)c1O)CCNCC2c1ccccc1` (centres undefined), with 41 µM. Then `CCOc1cc(N2CCOCC2)c(OCC)cc1NS(=O)(=O)c1ccc(Cl)s1`, with 40 µM. `CCS(=O)(=O)c1ncc(Cl)c(C(=O)Nc2ccc(S(=O)(=O)N3CCC(C)CC3)cc2)n1`: the CC50 is 48.6 µM. To `O=c1c2ccccc2nc(COc2ccccc2)n1/N=C/c1ccc(O)c(O)c1` belongs 33.8 µM; to `CNc1nc(-c2ccccc2)[n+](-c2ccc(C)cc2)s1`, 36.2 µM.

Regarding `O=c1oc2cc(O)ccc2s1`, the CC50 was 31.2 µM. As to `CCOc1ccc(NCc2cccn2-c2nnc(N3CCC(C(=O)NCCCN4CC(C)CC(C)C4)CC3)s2)cc1` (centres undefined), the cytotoxic concentration (CC50) is 36.9 µM. Then `Cc1ccc(-c2ccc(/C=C3\C(=O)ON=C3c3ccccc3)o2)c([N+](=O)[O-])c1`, with 37.5 µM; and `COc1cc(CNc2ccc(N3CCOCC3)cc2)ccc1OCC(=O)NC(C)(C)C`, with 30.8 µM; and `COCCN=C1Sc2nc3c(C)cccc3cc2CN1Cc1ccco1`, with 23 µM. Then `Cc1ccc(S(=O)(=O)N2[C@@H](c3ccc(Cl)cc3)C(C(=O)O)=CC[C@H]2c2ccc(Cl)cc2)cc1`, with 30.7 µM; and `COc1cc(Cl)ccc1NC(=O)COc1ccccc1C(=O)N1CCN(c2ccc(O)cc2)CC1`, with 33.7 µM. As to `COc1cccc(-n2c(SCc3cc(=O)oc4cc(O)c(O)cc34)nc3ccccc3c2=O)c1`, the CC50 was 18.2 µM. To `C=C1C(=O)O[C@H]2[C@H]1[C@H](OC(=O)CC(=O)O[C@@H]1C[C@@H](C)[C@@H]3C=CC(=O)[C@@]3(C)[C@H]3OC(=O)C(=C)[C@H]13)C[C@@H](C)[C@H]1C=CC(=O)[C@]12C` belongs 3.95 µM.

The values above are taken from PubChem BioAssay AID2102 (Southern Research Specialized Biocontainment Screening …, 2009).
